Reference: PMC9574929, “Development of Hydrogen Sulfide-Releasing Carbonic Anhydrases IX- and XII-Selective Inhibitors with Enhanced Antihyperalgesic Action in a Rat Model of Arthritis” (Journal of Medicinal Chemistry, 2022)
Values joined by “and” are separate entries in the source; they are usually repeats but may differ in a detail not shown here. Equal values may be shown once. Read-outs that look alike come from different tables or passages of the source. Blank lines part the entries; values can stand above or below the molecule they belong to.

Assays:
hCA IX [1] = biological target: T1, hCA IX (Homo sapiens, UniProt Q16790); parameters: made in house; method as in Bonardi et al. [29,30]; settings: stopped-flow CO2 hydrase assay; Table S1 footnote b; ref Bonardi et al. [29,30]; cited from earlier work
hCA IV [2] = biological target: T2, hCA IV (Homo sapiens, UniProt P22748); assay: Stopped-flow CO2 hydrase assay, hCA IV; settings: for SI CA I/IV / SI CA II/IV: selectivity index, ratio of KIs
T2 sequence (P22748 19-312): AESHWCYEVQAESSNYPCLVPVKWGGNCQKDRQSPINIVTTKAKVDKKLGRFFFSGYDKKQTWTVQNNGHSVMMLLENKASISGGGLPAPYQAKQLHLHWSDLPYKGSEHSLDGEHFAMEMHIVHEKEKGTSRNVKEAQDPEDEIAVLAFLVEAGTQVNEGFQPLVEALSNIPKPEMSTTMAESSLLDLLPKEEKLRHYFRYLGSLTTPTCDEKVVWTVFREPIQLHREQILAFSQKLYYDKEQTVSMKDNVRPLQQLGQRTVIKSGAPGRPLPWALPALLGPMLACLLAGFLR
Procedure: (§3) The uncatalyzed rates were determined in the same manner and subtracted from the total observed rates. Stock solutions of inhibitor (0.1 mM) were prepared in distilled-deionized water and dilutions up to 0.01 nM were done thereafter with the assay buffer. […] The inhibition constants were obtained by nonlinear least-squares methods using PRISM 3 and the Cheng–Prusoff equation, as reported earlier,[39] and represent the mean from at least three different determinations.

hCA II [3] = biological target: T3, hCA II (Homo sapiens, UniProt P00918); assay: Stopped-flow CO2 hydrase assay, hCA II; settings: for SI CA I/II: selectivity index, ratio of KIs
Procedure: as §3

hCA IX [4] = biological target: T1, hCA IX; assay: Stopped-flow CO2 hydrase assay, hCA IX; settings: selectivity index, ratio of KIs
Procedure: as §3

hCA XII [5] = biological target: T4, hCA XII (Homo sapiens, UniProt O43570); assay: Stopped-flow CO2 hydrase assay, hCA XII; settings: for SI CA I/XII / SI CA II/XII: selectivity index, ratio of KIs
T4 sequence (O43570 25-354): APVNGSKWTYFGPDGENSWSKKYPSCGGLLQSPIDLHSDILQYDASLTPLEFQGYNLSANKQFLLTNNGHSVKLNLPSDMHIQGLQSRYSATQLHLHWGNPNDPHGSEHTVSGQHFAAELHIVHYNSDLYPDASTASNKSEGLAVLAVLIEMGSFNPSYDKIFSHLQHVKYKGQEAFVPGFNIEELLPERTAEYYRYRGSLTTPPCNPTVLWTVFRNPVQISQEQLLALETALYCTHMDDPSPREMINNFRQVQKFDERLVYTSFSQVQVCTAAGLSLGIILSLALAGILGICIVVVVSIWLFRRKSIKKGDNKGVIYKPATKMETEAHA
Procedure: as §3

hCA I [6] = biological target: T5, hCA I (Homo sapiens, UniProt P00915); assay: Stopped-flow CO2 hydrase assay, hCA I
T5 sequence (P00915 whole entry): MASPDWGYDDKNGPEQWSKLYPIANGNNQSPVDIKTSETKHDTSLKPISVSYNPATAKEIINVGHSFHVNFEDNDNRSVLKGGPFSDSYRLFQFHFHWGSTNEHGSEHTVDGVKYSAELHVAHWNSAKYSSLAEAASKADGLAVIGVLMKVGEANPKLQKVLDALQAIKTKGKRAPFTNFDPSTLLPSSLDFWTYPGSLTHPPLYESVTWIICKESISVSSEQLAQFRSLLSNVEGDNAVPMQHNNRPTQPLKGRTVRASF
Procedure: as §3

[7] = test system: rat model of arthritis induced by the intra-articular injection of complete Freund's adjuvant (CFA); assay: Paw pressure test, CFA-induced arthritis; assay type: in vivo
Procedure: (§1) Articular damage was induced by injection of Complete Freund’s Adjuvant (CFA; Sigma-Aldrich, St Louis, MO, USA), containing 1 mg/mL of heat-killed and dried Mycobacterium tuberculosis in paraffin oil and mannide monooleate, into the tibiotarsal joint.[50] Briefly, the rats were lightly anesthetized with 2% isoflurane, the left leg skin was sterilized with 75% ethyl alcohol, and the lateral malleolus was located by palpation. A 28-gauge needle was then inserted vertically to penetrate the skin and turned distally for insertion into the articular cavity at the gap between the tibiofibular and tarsal bone until a distinct loss of resistance was felt. A volume of 50 μL of CFA was then injected (day 0). Control rats received 50 μL of saline solution (day 0) in the tibiotarsal joint.
(§2) The hybrid derivatives 26, 29, 30, and 31 (1, 10, and 30 mg/kg) were suspended in a 1% solution of carboxymethylcellulose (CMC) sodium salt and acutely per os administered starting from day 14 after CFA i.a. injection, when arthritis was well established. The H2S releaser 3 and CAI 15 were also administered alone or in coadministration at the equimolar dose of compound 30 30 mg/kg (13.23 and 17.71 mg/kg, respectively). The antihypersensitivity effects were evaluated over time by the Paw pressure and Incapacitance tests.
The nociceptive threshold of rats was determined with an analgesimeter (Ugo Basile, Varese, Italy), according to the method described by Leighton et al.[51] and Maresca et al.,[52] (doi: 10.1111/jphp.12828). Briefly, a constantly increasing pressure was applied to a small area of the dorsal surface of the hind paw using a blunt conical probe by a mechanical device. Mechanical pressure was increased until vocalization or a withdrawal reflex occurred while rats were lightly restrained. Vocalization or withdrawal reflex thresholds were expressed in grams. […]

[8] = test system: rat model of arthritis induced by the intra-articular injection of complete Freund's adjuvant (CFA); assay: Incapacitance test, CFA-induced arthritis; assay type: in vivo
Procedure: as §1, §2
Weight-bearing changes were measured using an incapacitance apparatus (Linton Instrumentation, Norfolk, U.K.) to detect changes in postural equilibrium after a hind limb injury.[53],[54] Rats were trained to stand on their hind paws in a box with an inclined plane (65° from horizontal). This box was placed above the incapacitance apparatus. This allowed us to independently measure the weight that the animal applied on each hind limb. The value reported for each animal is the mean of five consecutive measurements. In the absence of hind limb injury, rats applied an equal weight on both hind limbs, indicating postural equilibrium, whereas an unequal distribution of weight on the hind limbs indicated a monolateral decreased pain threshold. Data are expressed as the difference between the weight applied to the limb contralateral to the injury and the weight applied to the ipsilateral limb (Δ weight).

hCA XII [9] = biological target: T4, hCA XII; parameters: made in house; method as in Bonardi et al. [29,30]; settings: stopped-flow CO2 hydrase assay; Table S1 footnote b; ref Bonardi et al. [29,30]; cited from earlier work
hCA II [10] = biological target: T3, hCA II; parameters: made in house; method as in Bonardi et al. [29,30]; settings: stopped-flow CO2 hydrase assay; Table S1 footnote b; ref Bonardi et al. [29,30]; cited from earlier work
hCA IV [11] = biological target: T2, hCA IV; parameters: made in house; method as in Bonardi et al. [29,30]; settings: stopped-flow CO2 hydrase assay; Table S1 footnote b; ref Bonardi et al. [29,30]; cited from earlier work
hCA I [12] = biological target: T5, hCA I; parameters: made in house; method as in Bonardi et al. [29,30]; settings: stopped-flow CO2 hydrase assay; Table S1 footnote b; ref Bonardi et al. [29,30]; cited from earlier work
rats = assay: Toxicity and Irwin test; assay type: in vivo, rat; parameters: key to Irwin test: Spontaneous activity / Irwin test: Straightening reflex / Irwin test: Hypo-hyperthermia / Irwin test: Cleaning / Irwin test: Curiosity / Irwin test: Reactivity / Irwin test: Convulsions: observer's semiquantitative score (0 to +4, −4 to 0, or −4 to +4); settings: 30 mg/kg
Procedure: Toxicity was evaluated after a single acute administration of 26, 29, 30, and 31 at 30 mg/kg. […] For the Irwin test, each rat was individually placed in a transparent cage (26 × 41 cm), and 26 neurobehavioral or physiological parameters were systematically assessed according to Irwin (1968)[55] and already reported by Berrino and colleagues in similar studies.[30] Behavioral, autonomic, and neurological manifestations produced by compound administration in rats were evaluated: motor displacement, motor reflexes, stereotypies, grooming, reaction to painful or environmental stimuli (analgesia and irritability), startle response, secretions, excretions, respiratory movements, skin color and temperature, piloerection, exophthalmos, eyelid and corneal reflexes, muscle tone, ataxia, tremors, head twitches, jumps, convulsions, Straub tail, and other signs or symptoms. For postural reflexes (righting reflex) and other signs such as piloerection, exophthalmia (exaggerated protrusion of the eyeball), ataxia, tremors, and Straub tail, only presence or absence was recorded. Skin color was evaluated qualitatively (pale, red, or purple); other signs were evaluated semiquantitatively, according to the observer’s personal scale (0 to +4, −4 to 0, or −4 to +4). The terms sedation and excitation express the final interpretation of a group of signs: reduced motor activity, reduced startle response, eyelid ptosis, and reduced response to manual manipulation, for the former; and increased motor activity, increased startle response, increased response to manual manipulation, and exophthalmia, for the latter. Hyperactivity includes running, jumping, and attempting to escape from the container. Trained observers were not informed about the specific treatment of each animal group carried out in this test.

[13] = per os, 3 13.23 mg/kg, 15 17.71 mg/kg
[14] = S.N.C. excitement, limits 0 - 4

SMILES: NS(=O)(=O)c1ccc(CCNCc2ccccc2)cc1 [Compound 4, 4-(2-(Benzylamino)ethyl)benzenesulfonamide]
Ki (hCA IX [1]): 78.1 nM

SI CA I/IV (hCA IV [2]): 0.09
SI CA II/IV (hCA IV [2]): 0.06
SI CA I/II (hCA II [3]): 1.4
SI CA I/IX (hCA IX [4]): 2.0
SI CA II/IX (hCA IX [4]): 1.4
SI CA I/XII (hCA XII [5]): 1.9
SI CA II/XII (hCA XII [5]): 1.3
SMILES: NS(=O)(=O)c1ccc(CCNCc2ccc(F)cc2)cc1 [Compound 5, 4-(2-((4-Fluorobenzyl)amino)ethyl)benzenesulfonamide]
Ki (hCA IX [1]): 56.5 nM

SI CA I/IV (hCA IV [2]): 0.1
SI CA II/IV (hCA IV [2]): 0.07
SI CA I/II (hCA II [3]): 1.9
SI CA I/IX (hCA IX [4]): 2.5
SI CA II/IX (hCA IX [4]): 1.4
SI CA I/XII (hCA XII [5]): 2.9
SI CA II/XII (hCA XII [5]): 1.6
SMILES: NS(=O)(=O)c1ccc(CCNCc2ccc([N+](=O)[O-])cc2)cc1 [Compound 10, 4-(2-((4-Nitrobenzyl)amino)ethyl)benzenesulfonamide]
Ki (hCA IX [1]): 89.2 nM

Ki (hCA I [6]): 261 nM
Ki (hCA IV [2]): 3010 nM
SI CA II/IV (hCA IV [2]): 0.06
Ki (hCA II [3]): 178 nM
SI CA I/II (hCA II [3]): 1.5
SI CA I/IX (hCA IX [4]): 5.8
SI CA II/IX (hCA IX [4]): 4.0
Ki (hCA XII [5]): 54.7 nM
SI CA I/XII (hCA XII [5]): 4.8
SI CA II/XII (hCA XII [5]): 3.2
SMILES: NS(=O)(=O)c1ccc(CCNCc2cccc3ccccc23)cc1 [Compound 15, 4-(2-((Naphthalen-1-ylmethyl)amino)ethyl)benzenesulfonamide]
antihyperalgesic effect, Paw pressure test, dose equimolar to 30 30 mg/kg [7, 13]: very weak antihyperalgesic action
antihyperalgesic effect, Incapacitance test, dose equimolar to 30 30 mg/kg [8, 13]: absence of effects detected in vivo

SI CA II/IV (hCA IV [2]): 0.02
SI CA I/II (hCA II [3]): 3.1
SI CA I/IX (hCA IX [4]): 2.7
SI CA I/XII (hCA XII [5]): 2.6
SI CA II/XII (hCA XII [5]): 0.9
SMILES: NS(=O)(=O)c1ccc(CCNCCc2ccccc2)cc1 [Compound 17, 4-(2-(Phenethylamino)ethyl)benzenesulfonamide]
Ki (hCA IX [1]): 102 nM

SI CA I/IV (hCA IV [2]): 0.01
SI CA II/IV (hCA IV [2]): 0.02
SI CA I/II (hCA II [3]): 0.7
SI CA I/IX (hCA IX [4]): 1.0
SI CA II/IX (hCA IX [4]): 1.5
SI CA I/XII (hCA XII [5]): 0.9
SI CA II/XII (hCA XII [5]): 1.4
SMILES: N#CCCNCCc1ccc(S(N)(=O)=O)cc1 [Compound 18, 4-(2-((2-Cyanoethyl)amino)ethyl)benzenesulfonamide]
Ki (hCA XII [9]): 113 nM
Ki (hCA IX [1]): 105 nM
Ki (hCA II [10]): 154 nM
Ki (hCA IV [11]): 5550 nM
Ki (hCA I [12]): 105 nM

SMILES: NS(=O)(=O)c1ccc(CCN(Cc2csc3ccccc23)C(=O)c2ccc(-c3cssc3=S)cc2)cc1 [Compound 31, N-(Benzo[b]thiophen-3-ylmethyl)-N-(4-sulfamoylphenethyl)-4-(3-thioxo-3H-1,2-dithiol-4-yl)benzamide]
Irwin test: Cyanosis (rats; Autonomic signes, limits 0 - 4): 0
Irwin test: Exolphthalmos (rats; Autonomic signes, limits 0 - 4): 0
Irwin test: Flush (rats; Autonomic signes, limits 0 - 4): 0
Irwin test: Lacrimation (rats; Autonomic signes, limits 0 - 4): 0
Irwin test: Pallor (rats; Autonomic signes, limits 0 - 4): 0
Irwin test: Piloerection (rats; Autonomic signes, limits 0 - 4): 0
Irwin test: Salivation (rats; Autonomic signes, limits 0 - 4): 0
Irwin test: Writhing (rats; Autonomic signes, limits 0 - 4): 0
Irwin test: Palpebral opening (rats; Autonomic signes, limits 4 - 0): 4
Irwin test: Hypo-hyperthermia (rats; Autonomic signes, limits -4/+4): 0
Irwin test: Passivity (rats; Behaviour, limits 0 - 4): 0
Irwin test: Vocalization (rats; Behaviour, limits 0 - 4): 0
Irwin test: Cleaning (rats; Behaviour, limits 4 - 0): 0
Irwin test: Curiosity (rats; Behaviour, limits 4 - 0): 4
Irwin test: Reactivity (rats; Behaviour, limits 4 - 0): 4
Irwin test: Spontaneous activity (rats; Behaviour, limits 4 - 0): 4
Irwin test: Ataxia (rats; Movement, limits 0 - 4): 0
Irwin test: Stereotipies (rats; Movement, limits 0 - 4): 0
Irwin test: Straightening reflex (rats; Movement, limits 4 - 0): 4
Irwin test: Physical strenght (rats; Muscolar tone, limits 4 – 0): 4
Irwin test: Palpebral reflex (rats; Reflexes, limits 4 - 0): 4
Irwin test: Straub tail (rats; [14]): 0
Irwin test: Tremors (rats; [14]): 0
Irwin test: Convulsions (rats; S.N.C. excitement, limits 4 - 0): 0
Irwin test: Delayed death (48 h) (rats; Toxicity, limits 0 - 4): 0
Irwin test: Immediate death (rats; Toxicity, limits 0 - 4): 0
SI CA I/IV (hCA IV [2]): >208
SI CA II/IV (hCA IV [2]): 52 and 51.7
antihyperalgesic effect, Paw pressure test, 1 mg/kg ([7]; 1 mg/kg per os): ineffective
weight tolerated on the ipsilateral paw, Paw pressure test, 10 and 30 mg/kg ([7]; 10 and 30 mg/kg per os, from 15 min up to 45 min after treatment, vs CFA-treated animals): significantly increased the weight tolerated
SI CA I/IX (hCA IX [4]): >4167
SI CA I/XII (hCA XII [5]): >1204
SI CA II/XII (hCA XII [5]): 299
reduction of spontaneous pain, Incapacitance test ([8]; single per os, 1 to 30 mg/kg, day 14 after CFA): reduced spontaneous pain in a dose-dependent manner
